Values of other authors as cited in patent US8394592B2, “Methods for assessing cancer susceptibility to carcinogens in tobacco products” (The Board of Regents of the University of Texas System, priority 2006, dated 2013).

Key:
Salmonella = details: Ames Salmonella assay; cited from earlier work
Swiss mice = details: micronucleus test in Swiss mice; cited from earlier work

Q: What does the source list for `CN(CCCC(=O)c1cccnc1)N=O` [NNK, 4-(methylnitrosamino)-1-(3-pyridyl)-1-butanone]?
A: mutagenicity (Salmonella): potent mutagen; mutagenicity (Swiss mice): potent mutagen
